Test: Stability test of KDG to heat in water (remaining rate observed according to HPLC)
Format: physicochemical
Conditions: for Remaining Rate of KDG: water 10 times the amount of KDG
Description: HPLC Analytic Conditions: ShodexAsahipack NH2-P50 (manufactured by Showa Denko K.K.), 50 mM sodium hydrogen phosphate aqueous solution, flow rate of 1 ml/min. and detection UV of 210 nm.
1.21 g (5.61 mmole) of KDG potassium salt was dissolved in 10 g of water (10 times the amount of KDG). pH of the solution was 7.3. Subsequently, when 64 mg (1.69 mmole: 0.3 equivalent) of granular sodium borohydride was added at 25° C., the reaction temperature increased to 33° C. Furthermore, pH after the completion of the reaction was 10.8. After the reaction was completed, when observed by HPLC, the reaction yield of metasaccharic acid was 94%. The reaction heat was observed as remarkable. […] In order to carry out the reaction with the good yield, stability to the heat of KDG was measured in the presence of water with 10 times the amount of KDG. (Table 1) (Table 2) (Table 3)
Here, the results of stability test to the KDG heat in the presence of water 10 times the amount of KDG are shown below. (Table 4)

Question: For `O=C(O)C(O)CC(O)C(O)CO` (stereo not drawn), which “Stability (in words)” value (generated product of the sodium borohydride reduction, aqueous reaction conditions) is on record?
Answer: stable

Question: Which results are given for `O=C(O)C(=O)C[C@H](O)[C@H](O)CO` [KDG, 2-keto-3-deoxy-D-gluconic acid]?
Answer: Remaining Rate of KDG (pH 7.0, 25° C., 2 hours): 101%; Remaining Rate of KDG (pH 7.0, 25° C., 4 hours): 100%; Remaining Rate of KDG (pH 7.0, 25° C., 21 hours): 100%; Remaining Rate of KDG (pH 7.0, 25° C., 24 hours): 101%; Remaining Rate of KDG (pH 7.0, 50° C., 2 hours): 100%; Remaining Rate of KDG (pH 7.0, 50° C., 4 hours): 101%; Remaining Rate of KDG (pH 7.0, 50° C., 21 hours): 100%; Remaining Rate of KDG (pH 7.0, 50° C., 24 hours): 99%; Remaining Rate of KDG (pH 8.5, 25° C., 2 hours): 100%; Remaining Rate of KDG (pH 8.5, 25° C., 4 hours): 99%; Remaining Rate of KDG (pH 8.5, 25° C., 21 hours): 101%; Remaining Rate of KDG (pH 8.5, 25° C., 24 hours): 100%; Remaining Rate of KDG (pH 8.5, 50° C., 2 hours): 101%; Remaining Rate of KDG (pH 8.5, 50° C., 4 hours): 100%; Remaining Rate of KDG (pH 8.5, 50° C., 21 hours): 99%; Remaining Rate of KDG (pH 8.5, 50° C., 24 hours): 98%; Remaining Rate of KDG (pH 10.5, 25° C., 2 hours): 102%; Remaining Rate of KDG (pH 10.5, 25° C., 4 hours): 101%; Remaining Rate of KDG (pH 10.5, 25° C., 21 hours): 100%; Remaining Rate of KDG (pH 10.5, 25° C., 24 hours): 101%; Remaining Rate of KDG (pH 10.5, 50° C., 2 hours): 101%; Remaining Rate of KDG (pH 10.5, 50° C., 4 hours): 99%; Remaining Rate of KDG (pH 10.5, 50° C., 21 hours): 94%; Remaining Rate of KDG (pH 10.5, 50° C., 24 hours): 93%; Remaining Rate of KDG (pH 12.0, 4° C., 2 hours): 101%; Remaining Rate of KDG (pH 12.0, 4° C., 4 hours): 99%; Remaining Rate of KDG (pH 12.0, 4° C., 21 hours): 100%; Remaining Rate of KDG (pH 12.0, 4° C., 24 hours): 98%; Remaining Rate of KDG (pH 12.0, 25° C., 2 hours): 99%; Remaining Rate of KDG (pH 12.0, 25° C., 4 hours): 95%; Remaining Rate of KDG (pH 12.0, 25° C., 21 hours): 84%; Remaining Rate of KDG (pH 12.0, 25° C., 24 hours): 79%; Stability to heat (in words) (pH 12.0, 50° C.): remarkably decomposed; Remaining Rate of KDG (pH 12.0, 50° C., 2 hours): 61%; Remaining Rate of KDG (pH 12.0, 50° C., 4 hours): 56%
